Reference: patent publication US8980909B2, “HDAC inhibiting derivatives of camptothecin” (Crystal Biopharmaceutical LLC, priority 2011, dated 2015)

Columns and labels:
[1] = system: NCI/ADR-RES; test: In vitro anti-proliferation assay (ATPlite), NCI/ADR-RES; format: cell-based; conditions: for IC50: Homo sapiens, Ovarian Cancer, NCI/ADR-RES, 72 hours
Procedure: (§1) Cell antiproliferation was assayed by PerkinElmer ATPlite™ Luminescence Assay System. The cancer cell lines were plated at 10 k cells per well in Costar 96-well plates with different concentration of compounds for 72 hours with […]. After that, one lyophilized substrate solution vial was reconstituted by adding 5 mL of substrate buffer solution and was agitated gently until the solution is homogeneous. 50 μL of mammalian cell lysis solution was added to 100 μL of cell suspension per well of a microplate and the plate was shaken for five minutes in an orbital shaker at 700 rpm. This procedure will lyses the cells and stabilizes the ATP. Next, 50 μL substrate solution was added to the wells and microplate was shaken for five minutes in an orbital shaker at 700 rpm. Finally, the luminescence was measured by a PerkinElmer TopCount® Microplate Scintillation Counter. Such assays, carried out with a range of doses of test compounds, allow the determination of the cellular anti-antiproliferative IC50 of the compounds of the present invention.
(§2) The cellular antiproliferative assay were conducted side-by-side for Irinotecan (a FDA approved semisynthetic Camptothecin), and CY-700 (the first-in-class dual-functional semisynthetic Camptothecin/HDAC inhibitor), in 53 different cancer cell lines of breast cancer, renal cancer, non-small cell lung cancer, colon cancer, leukemia, multiple myeloma, ovarian cancer, prostate cancer, melanoma, and CNS cancer.

[2] = system: LOX IMVI; test: In vitro anti-proliferation assay (ATPlite), LOX IMVI; format: cell-based; conditions: for IC50: Homo sapiens, Melanoma, LOX IMVI, 72 hours
Procedure: as §1, §2

[3] = system: OVCAR-8; test: In vitro anti-proliferation assay (ATPlite), OVCAR-8; format: cell-based; conditions: for IC50: Homo sapiens, Ovarian Cancer, OVCAR-8, 72 hours
Procedure: as §1, §2

[4] = system: U251; test: In vitro anti-proliferation assay (ATPlite), U251; format: cell-based; conditions: for IC50: Homo sapiens, U-251, CNS Cancer, U251, 72 hours
Procedure: as §1, §2

[5] = system: SF-268; test: In vitro anti-proliferation assay (ATPlite), SF-268; format: cell-based; conditions: for IC50: Homo sapiens, CNS Cancer, SF-268, 72 hours
Procedure: as §1, §2

[6] = system: SNB-75; test: In vitro anti-proliferation assay (ATPlite), SNB-75; format: cell-based; conditions: for IC50: Homo sapiens, CNS Cancer, SNB-75, 72 hours
Procedure: as §1, §2

[7] = target: HDAC-1 (Homo sapiens, UniProt Q13547); test: Inhibition of histone deacetylase enzymatic activity (Fluor-de-Lys), HDAC-1; format: biochemical; conditions: HDAC subtype HDAC-1
Sequence of HDAC-1 (Q13547 whole entry): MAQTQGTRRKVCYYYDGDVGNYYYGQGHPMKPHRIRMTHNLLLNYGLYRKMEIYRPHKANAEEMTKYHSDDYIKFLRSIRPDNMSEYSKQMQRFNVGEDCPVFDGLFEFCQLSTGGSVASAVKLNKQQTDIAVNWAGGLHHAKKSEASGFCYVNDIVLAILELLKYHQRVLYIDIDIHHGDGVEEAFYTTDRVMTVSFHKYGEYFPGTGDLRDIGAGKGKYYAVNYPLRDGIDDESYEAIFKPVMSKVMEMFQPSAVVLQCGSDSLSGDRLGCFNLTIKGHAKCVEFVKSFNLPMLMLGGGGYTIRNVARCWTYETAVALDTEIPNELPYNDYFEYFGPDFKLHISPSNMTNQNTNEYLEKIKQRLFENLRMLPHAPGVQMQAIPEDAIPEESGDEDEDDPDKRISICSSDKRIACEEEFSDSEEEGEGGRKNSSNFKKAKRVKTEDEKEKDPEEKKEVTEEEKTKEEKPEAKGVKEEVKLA
Procedure: The following assay protocol was used to assay the compounds of the invention against the HDAC enzymes (HDAC-1, 2, 3, 4, 5, 6, 7, 8, 9, 10, and 11.). […] The enzyme stock solution was 4 μg/mL in buffer. The compounds were pre-incubated (2 μl in DMSO diluted to […] in buffer for transfer to assay plate) with enzyme (20 μl of 4 μg/ml) for 10 minutes at room temperature (35 μl pre-incubation volume). The mixture was pre-incubated for 5 minutes at room temperature. The reaction was started by bringing the temperature to 37° C. and adding 15 μl substrate. Total reaction volume was 50 μl. […] Such assays, carried out with a range of doses of test compounds, allowed the determination of an approximate IC50 value.

[8] = system: NCI-H226; test: In vitro anti-proliferation assay (ATPlite), NCI-H226; format: cell-based; conditions: for IC50: Homo sapiens, NSCLC, NCI-H226, 72 hours
Procedure: as §1, §2

[9] = system: T-47D; test: In vitro anti-proliferation assay (ATPlite), T-47D; format: cell-based; conditions: for IC50: Homo sapiens, T47D, Breast Cancer, T-47D, 72 hours
Procedure: as §1, §2

[10] = system: 53 different cancer cell lines; test: In vitro anti-proliferation assay (ATPlite), panel of 53 cancer cell lines; format: cell-based; conditions: among 53 cancer cell lines, side-by-side with Irinotecan
Procedure: as §1, with “invention. […]” for “invention.”

[11] = system: CAKI-1; test: In vitro anti-proliferation assay (ATPlite), CAKI-1; format: cell-based; conditions: for IC50: Homo sapiens, Renal Cancer, CAKI-1, 72 hours
Procedure: as §1, §2

[12] = system: MCF7; test: In vitro anti-proliferation assay (ATPlite), MCF7; format: cell-based; conditions: for IC50: Homo sapiens, Breast Cancer, MCF7, 72 hours
Procedure: as §1, §2

[13] = system: CCRF-CEM; test: In vitro anti-proliferation assay (ATPlite), CCRF-CEM; format: cell-based; conditions: for IC50: Homo sapiens, Leukemia, CCRF-CEM, 72 hours
Procedure: as §1, §2

[14] = system: SNB-19; test: In vitro anti-proliferation assay (ATPlite), SNB-19; format: cell-based; conditions: for IC50: Homo sapiens, CNS Cancer, SNB-19, 72 hours
Procedure: as §1, §2

[15] = system: BT-549; test: In vitro anti-proliferation assay (ATPlite), BT-549; format: cell-based; conditions: for IC50: Homo sapiens, Breast Cancer, BT-549, 72 hours
Procedure: as §1, §2

[16] = system: SK-MEL-5; test: In vitro anti-proliferation assay (ATPlite), SK-MEL-5; format: cell-based; conditions: for IC50: Homo sapiens, Melanoma, SK-MEL-5, 72 hours
Procedure: as §1, §2

[17] = system: RXF 393; test: In vitro anti-proliferation assay (ATPlite), RXF 393; format: cell-based; conditions: for IC50: Homo sapiens, Renal Cancer, RXF 393, 72 hours
Procedure: as §1, §2

[18] = system: SF-539; test: In vitro anti-proliferation assay (ATPlite), SF-539; format: cell-based; conditions: for IC50: Homo sapiens, CNS Cancer, SF-539, 72 hours
Procedure: as §1, §2

[19] = In vitro activities (comparison in words, test not specified)
[20] = Solubility (comparison in words); format: physicochemical

Row | SMILES | IC50 [1] [µM] | IC50 [2] [µM] | IC50 [3] [µM] | IC50 [4] [µM] | IC50 [5] [µM] | IC50 [6] [µM] | IC50 [8] [µM] | IC50 [9] [µM] | IC50 [11] [µM] | IC50 [12] [µM] | IC50 [13] [µM] | IC50 [14] [µM] | IC50 [15] [µM] | IC50 [16] [µM] | IC50 [17] [µM] | IC50 [18] [µM] | also measured
1 | CCc1c2c(nc3ccc(OCCCCCCC(=O)NO)cc13)-c1cc3c(c(=O)n1C2)COC(=O)[C@]3(O)CC [CY-700] | 5.1 | 0.7 | 2.7 | 0.7 | 0.5 | 2.3 | 1.2 | 2.1 | 0.7 | 0.5 | 0.4 | 1.1 | 2.6 | 1.3 | 2.3 | 0.6 | Ratio ([1]; Irinotecan IC50 / CY-700 IC50, NCI/ADR-RES): 8.2; Ratio ([2]; Irinotecan IC50 / CY-700 IC50, LOX IMVI): 5.2; Ratio ([3]; Irinotecan IC50 / CY-700 IC50, OVCAR-8): 6.4; Ratio ([4]; Irinotecan IC50 / CY-700 IC50, U251): 5.5; Ratio ([5]; Irinotecan IC50 / CY-700 IC50, SF-268): 7.4; Ratio ([6]; Irinotecan IC50 / CY-700 IC50, SNB-75): 6.9; IC50 ([7]; Fluor-de-Lys substrate, approximate IC50): 0.019 µM; Ratio ([8]; Irinotecan IC50 / CY-700 IC50, NCI-H226): 7.2; Ratio ([9]; Irinotecan IC50 / CY-700 IC50, T-47D): 11.7; number of cancer cell lines with better in vitro potency than Irinotecan [10]: 47; Ratio ([11]; Irinotecan IC50 / CY-700 IC50, CAKI-1): 15.3; Ratio ([12]; Irinotecan IC50 / CY-700 IC50, MCF7): 12.1; Ratio ([13]; Irinotecan IC50 / CY-700 IC50, CCRF-CEM): 9.7; Ratio ([14]; Irinotecan IC50 / CY-700 IC50, SNB-19): 22.0; Ratio ([15]; Irinotecan IC50 / CY-700 IC50, BT-549): 7.0; Ratio ([16]; Irinotecan IC50 / CY-700 IC50, SK-MEL-5): 8.6; Ratio ([17]; Irinotecan IC50 / CY-700 IC50, RXF 393): 14.7; Ratio ([18]; Irinotecan IC50 / CY-700 IC50, SF-539): 8.9
2 | CC[C@@]1(O)C(=O)OCc2c1cc1n(c2=O)Cc2cc3c(CN(C)C)c(OC(=O)N4CCN(c5ncc(C(=O)NO)cn5)CC4)ccc3nc2-1 [CY-705] | – | – | – | – | – | – | – | – | – | – | – | – | – | – | – | – | in vitro activities as compared to CY-700 [19]: comparable in vitro activities; solubility as compared to CY-700 [20]: significantly better solubility
3 | CCc1c2c(nc3ccc(OC(=O)N4CCC(N5CCCCC5)CC4)cc13)-c1cc3c(c(=O)n1C2)COC(=O)[C@]3(O)CC [Irinotecan, reference compound] | 42.2 | 3.5 | 17.2 | 4.1 | 3.9 | 15.9 | 8.5 | 24.4 | 10.1 | 6.1 | 3.5 | 24.1 | 18.5 | 11.4 | 33.6 | 5 | HDAC-1 IC50 (result in words) ([7]; unit not given): No activity
